Measurements: article PMC9328650 (British Journal of Pharmacology, 2021)

Legend:
ERp57 = target: T1, ERp57 (Homo sapiens, UniProt P30101); test: Insulin turbidity assay, ERp57; format: biochemical; details: for Effect on enzyme activity of ERp57: 300 μM, highest concentration tested
T1 sequence (P30101 25-505): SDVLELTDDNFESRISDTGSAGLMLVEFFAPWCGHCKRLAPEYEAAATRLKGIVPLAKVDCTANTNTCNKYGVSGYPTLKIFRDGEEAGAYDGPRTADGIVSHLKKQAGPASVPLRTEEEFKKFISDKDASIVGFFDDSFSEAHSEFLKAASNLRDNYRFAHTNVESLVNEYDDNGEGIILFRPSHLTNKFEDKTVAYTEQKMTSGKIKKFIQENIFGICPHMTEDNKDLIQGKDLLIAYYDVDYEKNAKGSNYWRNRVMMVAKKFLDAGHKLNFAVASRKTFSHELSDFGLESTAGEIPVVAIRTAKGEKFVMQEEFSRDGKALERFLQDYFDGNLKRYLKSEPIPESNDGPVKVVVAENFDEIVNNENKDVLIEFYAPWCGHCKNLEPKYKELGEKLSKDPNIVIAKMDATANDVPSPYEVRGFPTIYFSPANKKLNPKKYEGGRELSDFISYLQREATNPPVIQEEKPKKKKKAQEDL
Experimental: (§1) Initial compound library screening was performed in an insulin turbidity assay adapted for high‐throughput screening (Holmgren, [1979]; Smith et al., [2004]). The reduction of the disulphide bond in insulin by a thiol isomerase results in the separation of the A and B chains and precipitation, which is measured by spectrophotometry at a wavelength of 650 nm. Using Corning 3891 well plates (with a final volume of 10 μl), a final concentration of 10 μg·ml^−1 of ERp57, 125‐μM insulin and 2‐mM EDTA in potassium phosphate buffer (100 mM) was added to each experimental well. Bacitracin (3 mM) was added to select wells as a positive control and vehicle plates served as a negative control. Experimental compounds were pin transferred to the wells at a final concentration of 30 μM and plates shaken. After incubation for 10 min, 0.3‐mM DTT was added to propagate enzyme activity. Following reaction for 1 hr at 37°C, plates were read using a PerkinElmer Envision plate reader (PerkinElmer, Waltham, MA). All compounds were tested in duplicate at the ICCB‐Longwood Screening Facility at Harvard Medical School.
(§2) Lead compounds were diluted in a 6‐point dose curve (concentrations depending on the observed effects in the initial screen) and insulin turbidity was measured kinetically each minute for 75 min using a Spectramax M3 microplate reader (Molecular Devices, Sunnyvale, CA). Specificity assay also utilised the insulin turbidity assay to determine specificity of inhibition; ERp57 was replaced with PDI (10 μg·ml^−1), ERp5 (30 μg·ml^−1), ERp72 (10 μg·ml^−1) or thioredoxin (10 μg·ml^−1), to determine the ability of lead compounds to inhibit these enzymes.
(§3) A total of 3,641 compounds were screened for inhibitory effects on the redox activity of ERp5, protein disulphide isomerase (PDI), ERp57, ERp72 and thioredoxin (TRX), all assayed at 10 μg·ml^−1 except ERp5 which was assayed at 30 μg·ml^−1. ZFL was selected for further investigation. […] (a) Enzyme assays performed in the absence of enzyme with drug only.

thioredoxin (TRX) = target: T2, thioredoxin (TRX) (Homo sapiens, UniProt P10599); test: Insulin turbidity assay, thioredoxin; format: biochemical; details: for Effect on enzyme activity of thioredoxin: 300 μM, highest concentration tested
T2 sequence (P10599 1-105): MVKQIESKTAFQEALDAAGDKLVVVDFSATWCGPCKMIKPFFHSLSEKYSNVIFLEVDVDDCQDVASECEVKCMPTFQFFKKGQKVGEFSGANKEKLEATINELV
Experimental: as §1, §2, §3

PDI = PDI (Homo sapiens, UniProt P07237); test: Insulin turbidity assay, PDI; format: biochemical; details: for Effect on enzyme activity of PDI: 300 μM, highest concentration tested
Experimental: as §1, §2, §3

HEK293T cells [1] = test: Cell migration scratch assay, HEK293T; format: cell-based, human; details: 20 μM, 40 hr
Experimental: (§4) MDA‐MB‐231 (ATCC Cat# HTB‐26, RRID:CVCL_0062) or HEK293T (ATCC Cat# CRL‐3216, RRID:CVCL_0063) were seeded into wells of a 12‐well plate (fibronectin coated, 10 μg·ml^−1) and grown to confluence in DMEM supplemented with 10% (v/v) FBS and 1% (v/v) penicillin–streptomycin. Following aspiration of media, a vertical scratch was performed to bisect the well and detached cells were removed by PBS washes. […] Images were analysed using Zeiss Axiovision software, and closure areas calculated using Fiji ImageJ. At 37/40 hr post‐scratch, cells were fixed in 4% (v/v) paraformaldehyde for 20 min and permeabilised with 0.2% (v/v) Triton X‐100 for 10 min. Cells were stained with phalloidin‐568 (dilution of 1:250, in PBS) for 1 hr and following washes, counterstained with DAPI (1:1,000) for 20 min. Cells were washed in PBS and mounted using Vectashield H‐1000.

thrombus formation = test: Laser injury arterial thrombus formation, cremaster muscle arterioles, intravital microscopy; format: in vivo, mouse; details: 20 μM circulating concentration, i.v., male C57BL/6J mice, n = 12 thrombi
Experimental: (§5) Male C57BL/6J mice (RRID:IMSR_JAX:000664 bred in house, at age 4–5 weeks with a weight range of 19–25 g) were anaesthetised by intraperitoneal injection of ketamine (125 mg·kg^−1), xylazine (12.5 mg·kg^−1) and atropine (0.25 mg·kg^−1). Platelets were labelled by intravenous infusion of DyLight 649‐conjugated anti‐GPIb platelet labelling antibody (0.2 μg·g^−1 body weight). […] Thrombi were observed using an Olympus BX microscope (Olympus, Essex, UK) and a Hamamatsu (Hamamatsu Photonics, Hertfordshire, UK) CCD camera and data analysed using Slidebook Software version 5.0 (Intelligent Imaging Innovations, Denver, USA) (Falati et al., [2006]; Holbrook et al., [2018]; Holbrook et al., [2012]). Mice were killed using Schedule 1 approved methods at the end of the experiment. […] Time to bleeding cessation was recorded. […] Animal experiments were approved by the University of Reading Local Ethical Review Panel and authorised by the UK Home Office. […]
(§6) Following laser injury, images were recorded for 5 min. […] Graphs represent mean ± SEM, n = 10 per treatment; data were analysed by Student's t‐test, *P < 0.05

[2] = system: HEK293T cell-surface free thiols; test: Cell-surface free thiol labelling with MPB, HEK293T; format: cell-based, human; details: 20 μM, vs vehicle
Experimental: (§7) MDA‐MB‐231 or HEK293T cells were cultured and treated as described before. Four hours post‐treatment, cells were washed with PBS, and free thiols labelled by incubation with MPB (100 μM) for 20 min. Free label was removed by multiple PBS washes, and cells were lysed in reducing sample treatment buffer for SDS‐PAGE analysis. Thiol labelling was detected using streptavidin‐HRP conjugate (1:10,000 dilution in 5% [w/v] BSA/TBS‐T), and chemiluminescence captured following the addition of ECL substrate.

HEK293T cells [3] = test: Proliferation assay, HEK293T; format: cell-based, human; details: 1–30 μM, 72 hr
Experimental: (§8) MDA‐MB‐231 or HEK293T cells were seeded at a density of 2.5 × 10^5 cells per well in a six‐well cell culture plate and grown for 24 hr. […] Following drug treatment, wells were washed and cells manually counted by haemocytometer or automatically using a Coulter counter (Beckman Coulter, CA, USA). Cell growth inhibition was calculated by comparing the counts of drug treated cells with untreated (control) cells as described previously (Kennedy et al., [2007]).

ERp5 = target: T3, ERp5 (Homo sapiens, UniProt Q15084); test: Insulin turbidity assay, ERp5; format: biochemical; details: ERp5 30 μg·ml^−1, 650 nm, 37°C
T3 sequence (Q15084 20-440): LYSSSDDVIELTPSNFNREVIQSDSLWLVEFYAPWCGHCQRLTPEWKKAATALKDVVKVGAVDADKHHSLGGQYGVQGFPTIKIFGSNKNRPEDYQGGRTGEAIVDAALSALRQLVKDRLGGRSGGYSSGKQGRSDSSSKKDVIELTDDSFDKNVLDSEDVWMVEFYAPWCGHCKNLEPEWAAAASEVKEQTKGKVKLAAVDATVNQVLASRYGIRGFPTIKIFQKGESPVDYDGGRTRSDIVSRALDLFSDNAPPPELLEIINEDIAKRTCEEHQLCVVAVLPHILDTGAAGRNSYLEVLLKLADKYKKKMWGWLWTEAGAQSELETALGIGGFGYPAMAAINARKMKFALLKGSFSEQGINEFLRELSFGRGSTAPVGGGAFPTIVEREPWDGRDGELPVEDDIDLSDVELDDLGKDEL
Experimental: as §1
(§9) Lead compounds were diluted in a 6‐point dose curve (concentrations depending on the observed effects in the initial screen) and insulin turbidity was measured kinetically each minute for 75 min using a Spectramax M3 microplate reader (Molecular Devices, Sunnyvale, CA). […]

[4] = system: haemostasis (bleeding time); test: Tail bleeding assay; format: in vivo, mouse; details: 20 μM circulating concentration, femoral vein, 5 min before tail biopsy, n = 10; vehicle 225 s ± 28 s; not significant
Experimental: as §5, §6

[5] = system: MDA-MB-231 cell-surface free thiols; test: Cell-surface free thiol labelling with MPB, MDA-MB-231; format: cell-based, human; details: 20 μM, vs vehicle
Experimental: as §7

MDA-MB-231 cells [6] = test: Cell migration scratch assay, MDA-MB-231; format: cell-based, human; details: 20 μM, 37 hr
Experimental: as §4

MDA-MB-231 cells [7] = test: 3-day growth inhibition (proliferation) assay, MDA-MB-231; format: cell-based, human; details: 72 hr
Experimental: as §8

ERp72 = target: T4, ERp72 (Homo sapiens, UniProt P13667); test: Insulin turbidity assay, ERp72; format: biochemical; details: ERp72 10 μg·ml^−1, 650 nm, 37°C
T4 sequence (P13667 21-645): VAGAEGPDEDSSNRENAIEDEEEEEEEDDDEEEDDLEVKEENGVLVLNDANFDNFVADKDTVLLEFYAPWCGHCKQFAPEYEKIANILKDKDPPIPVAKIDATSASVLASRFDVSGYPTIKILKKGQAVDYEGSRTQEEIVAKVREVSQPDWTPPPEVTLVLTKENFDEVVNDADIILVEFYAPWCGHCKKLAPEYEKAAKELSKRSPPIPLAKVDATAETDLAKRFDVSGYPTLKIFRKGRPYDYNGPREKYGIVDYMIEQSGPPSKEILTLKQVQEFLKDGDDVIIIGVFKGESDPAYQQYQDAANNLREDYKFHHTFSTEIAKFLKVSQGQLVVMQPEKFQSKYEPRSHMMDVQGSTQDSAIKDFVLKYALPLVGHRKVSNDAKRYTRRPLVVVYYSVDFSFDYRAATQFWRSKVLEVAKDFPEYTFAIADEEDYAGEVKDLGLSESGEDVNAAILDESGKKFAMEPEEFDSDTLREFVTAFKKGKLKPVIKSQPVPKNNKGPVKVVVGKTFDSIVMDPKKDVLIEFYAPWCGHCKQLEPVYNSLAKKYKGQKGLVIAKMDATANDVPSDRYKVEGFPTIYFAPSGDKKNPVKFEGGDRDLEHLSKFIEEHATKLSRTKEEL
Experimental: as §1, §9

[8] = design: method as in Fischer et al., [2000]; details: oral 20 mg twice daily; ref Fischer et al., [2000]; cited from earlier work

PDI, sequence (P07237 18-508, species assumed): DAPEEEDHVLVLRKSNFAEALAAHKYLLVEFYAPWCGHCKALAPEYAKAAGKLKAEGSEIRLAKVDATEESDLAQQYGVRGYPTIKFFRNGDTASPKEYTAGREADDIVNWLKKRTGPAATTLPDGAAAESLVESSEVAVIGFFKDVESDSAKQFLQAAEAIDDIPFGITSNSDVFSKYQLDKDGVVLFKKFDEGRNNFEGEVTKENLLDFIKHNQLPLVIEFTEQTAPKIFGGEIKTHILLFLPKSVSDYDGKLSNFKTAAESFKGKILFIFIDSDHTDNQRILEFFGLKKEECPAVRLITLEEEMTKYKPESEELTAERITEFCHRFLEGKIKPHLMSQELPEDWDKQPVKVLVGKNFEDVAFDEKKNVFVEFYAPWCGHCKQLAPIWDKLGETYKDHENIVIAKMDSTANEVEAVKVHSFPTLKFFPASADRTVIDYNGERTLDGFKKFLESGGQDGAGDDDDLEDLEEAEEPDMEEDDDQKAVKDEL

CC(C)(O)c1ccccc1CC[C@@H](SCC1(CC(=O)O)CC1)c1cccc(/C=C/c2ccc3ccc(Cl)cc3n2)c1 [montelukast]
Effect on enzyme activity of ERp57 (ERp57): almost entirely ablate
Effect on enzyme activity of thioredoxin (thioredoxin (TRX)): almost entirely ablate
Effect on enzyme activity of PDI (PDI): almost entirely ablate

COc1cc(C(=O)NS(=O)(=O)c2ccccc2C)ccc1Cc1cn(C)c2ccc(NC(=O)OC3CCCC3)cc12 [zafirlukast]
Closure area at endpoint (HEK293T cells [1]; vehicle 80,686 [±15,705]): 1,475,154 [±81,061]
Scratch area coverage (migration) at endpoint (HEK293T cells [1]; vehicle over 96%): 32%
Thrombus size (maximum fluorescence intensity) (thrombus formation): significantly impaired
Decrease of surface MPB labelling [2]: 47%
Effect on enzyme activity of ERp57 (ERp57): almost entirely ablate
Inhibition of ERp57 activity, concentration dependence (ERp57; ERp57 10 μg·ml^−1, 650 nm, 37°C): concentration dependently inhibits
Impairment of cell proliferation (HEK293T cells [3]): not detected
Inhibition of ERp5 activity, concentration dependence (ERp5): concentration dependently inhibits
Effect on enzyme activity of thioredoxin (thioredoxin (TRX)): almost entirely ablate
Inhibition of thioredoxin (TRX) activity, concentration dependence (thioredoxin (TRX); TRX 10 μg·ml^−1, 650 nm, 37°C): concentration dependently inhibits
Bleeding time [4]: 243 s
Reduction of surface free thiol (MPB) labelling [5]: 42%
Closure area at endpoint (MDA-MB-231 cells [6]; vehicle 62,163 ± 23,552): 243,707 ± 51,057
Scratch area covered at endpoint (MDA-MB-231 cells [6]; vehicle over 86%): 56%
Effect on cell proliferation (MDA-MB-231 cells [7]; 20 μM): minimal effect
Reduction of proliferation (MDA-MB-231 cells [7]; 30 μM): around 20%
Effect on enzyme activity of PDI (PDI): almost entirely ablate
Inhibition of PDI activity, concentration dependence (PDI; PDI 10 μg·ml^−1, 650 nm, 37°C): concentration dependently inhibits
Inhibition of ERp72 activity, concentration dependence (ERp72): concentration dependently inhibits
Peak plasma concentration (cMax) [8]: 697 ng/mL
Peak plasma concentration, equivalent [8]: 1.2 µM
Time of peak plasma concentration [8]: 3 h
